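Each compound was tested at five concentrations against cells in 96-well plates for 48 hours. At the GI50, growth is halved. TGI: concentration producing complete growth inhibition.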
Experiments:
Assay in all cases: NCI anticancer screen, dose series, 48 h
[1] = tested on: BT-549 breast
[2] = tested on: SF-295 CNS
[3] = tested on: K-562 leukemia
[4] = tested on: NCI/ADR-RES ovarian
[5] = tested on: RXF 393 renal
[6] = tested on: T-47D breast
[7] = tested on: OVCAR-5 ovarian
[8] = tested on: SK-MEL-5 melanoma
[9] = tested on: MDA-MB-435
[10] = tested on: SF-539 CNS

| SMILES | GI50 [1] | TGI [1] | GI50 [2] | TGI [2] | GI50 [3] | TGI [3] | GI50 [4] | TGI [4] | GI50 [5] | TGI [5] | GI50 [6] | TGI [6] | GI50 [7] | TGI [7] | GI50 [8] | TGI [8] | GI50 [9] | TGI [9] | TGI [10] | GI50 [10] |
| --- | --- | --- | --- | --- | --- | --- | --- | --- | --- | --- | --- | --- | --- | --- | --- | --- | --- | --- | --- | --- |
| CN(C)CCS(=O)(=O)Nc1cc(-c2ccc3ncnc(Nc4ccc(F)c(Cl)c4)c3c2)cnc1Cl | 0.24 µM | 1.38 µM | 0.515 µM | > 100 µM | 2.95 µM | > 54.5 µM | 3.32 µM | > 100 µM | 0.256 µM | 1.22 µM | 0.0941 µM | 0.635 µM | 0.268 µM | > 22.8 µM | 0.208 µM | 0.622 µM | 0.713 µM | 3.04 µM | – | – |
| Cn1c(CC(O)c2nc3ccccc3n2C)nc2ccccc21 (centres undefined) | – | > 63.2 µM | – | > 100 µM | – | > 47.9 µM | – | > 67.9 µM | – | > 39.4 µM | – | > 16.7 µM | – | > 74.3 µM | – | > 42.8 µM | – | > 44.4 µM | > 56 µM | – |
| CCc1ccc(C2=NN(c3ccc(S(C)(=O)=O)cc3)C(=O)CC2)cc1 | 0.513 µM | 16.3 µM | 0.904 µM | 8.54 µM | 0.488 µM | > 100 µM | 0.416 µM | 2.6 µM | 2.05 µM | 15.4 µM | 4.44 µM | 98.1 µM | 6.47 µM | > 100 µM | 1.64 µM | 11.1 µM | 0.212 µM | 0.804 µM | 11 µM | 2.3 µM |
| Cc1ccc(O)cc1Nc1ccnc2cc(-c3ccccn3)ccc12 | 4.9 µM | 10.3 µM | 3.12 µM | 6.89 µM | 0.0973 µM | 2.52 µM | 4.49 µM | 15.3 µM | 1.95 µM | 5.37 µM | 1.72 µM | 9.86 µM | 2.98 µM | 9.21 µM | 3.6 µM | 7.14 µM | 1.98 µM | 5.65 µM | 6.68 µM | 3.08 µM |
| CN(c1ccc(NC(=O)NCCN2CCOCC2)cc1)c1ccnc(Nc2ccc(CS(C)(=O)=O)cc2)n1 | > 25 µM | > 25 µM | > 25 µM | > 25 µM | > 25 µM | > 25 µM | > 25 µM | > 25 µM | > 25 µM | > 25 µM | > 23.6 µM | > 25 µM | > 25 µM | > 25 µM | > 25 µM | > 25 µM | > 25 µM | > 25 µM | > 25 µM | > 21.4 µM |
| COc1ncc2cc1NS(=O)(=O)c1cccc(c1)C(=O)NCC1=CC=C(S1)c1ncnc3c1SC2=C3C | 0.0855 µM | 0.505 µM | 0.0972 µM | 2.61 µM | 0.596 µM | > 100 µM | 0.542 µM | 9.63 µM | 0.0721 µM | 0.695 µM | 0.0946 µM | 4.04 µM | 0.169 µM | 4.02 µM | 0.0369 µM | 0.151 µM | 0.434 µM | 3.43 µM | – | – |
| O=C(/C=C/c1cccc(Oc2ccc(Cl)cc2)c1)c1ccccc1 | 31.6 µM | 97.5 µM | 60 µM | 196 µM | – | – | 37.1 µM | 232 µM | 44.2 µM | 152 µM | 46.3 µM | 235 µM | 26.3 µM | 83.6 µM | 36 µM | 127 µM | 21.9 µM | 50.9 µM | 53.2 µM | 21.3 µM |

— PubChem BioAssay (NCI)
